SMILES strings stand for the structures.

For test [1], the system named is foxtail, green. As to the kind of experiment: Test C pre-/postemergence herbicide test. The format is in vivo, Setaria viridis. The procedure, abridged: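 Pre-emergence: seeds sown in loam/sand blend and treated with compound in surfactant-containing solvent. Post-emergence: plants at 2–18 cm (1- to 4-leaf stage) in peat-based medium sprayed with the same formulation. Visual rating versus controls after 13–15 days in greenhouse, scale 0 (no effect) to 100 (complete control).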

For another test, the system named is corn. The test can be described thus: Test E preemergence herbicide test. Type of test: in vivo, Zea mays. The arrangement: key: 0 = no effect, 100 = complete control. In a few lines:
(§1)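 Greenhouse preemergence test: seeds sown into silt loam received compound in a non-phytotoxic solvent mixture with surfactant. Plants grew 21 days before visual comparison with controls. Scores run from 0, no effect, to 100, complete control.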

For the next test, the system named is waterhemp. As to the kind of experiment: Test E preemergence herbicide test. The format is in vivo, Amaranthus rudis. The arrangement: key: 0 = no effect, 100 = complete control. The procedure, abridged: as §1
Test [2] relates to foxtail, green. The test can be described thus: Test E preemergence herbicide test. The format is in vivo, Setaria viridis. The arrangement: key: 0 = no effect, 100 = complete control. The source says:
Seeds of plant species selected from corn (Zea mays), soybean (Glycine max), velvetleaf (Abutilon theophrasti), lambsquarters (Chenopodium album), wild poinsettia (Euphorbia heterophylla), pigweed, palmer (palmer pigweed, Amaranthus palmeri), waterhemp (common waterhemp, Amaranthus rudis), surinam grass (Brachiaria decumbens), crabgrass, large (large crabgrass, Digitaria sanguinalis), crabgrass, Brazil (Brazilian crabgrass, Digitaria horizontalis), panicum, fall (fall panicum, Panicum dichotomiflorum), foxtail, giant (giant foxtail, Setaria faberii), foxtail, green (green foxtail, Setaria viridis), goosegrass (Eleusine indica), johnsongrass (Sorghum halepense), ragweed (common ragweed, Ambrosia elatior), barnyardgrass (Echinochloa crus-galli), sandbur (southern sandbur, Cenchrus echinatus), arrowleaf […] rhombifolia), ryegrass, Italian (Italian ryegrass, Lolium multiflorum), dayflower, VA (Virginia dayflower, Commelina virginica), field bindweed (Convolvulus arvensis), morningglory (Ipomoea coccinea), nightshade (eastern black nightshade, Solanum ptycanthum), kochia (Kochia scoparia), nutsedge, yellow (yellow nutsedge, Cyperus esculentus), cocklebur (common cocklebur, Xanthium strumarium), smartweed (ladysthumb smartweed, Polygonum Persicaria) and beggarticks (hairy beggarticks, Bidens pilosa), were planted into a silt loam soil and treated preemergence with test chemicals formulated in a non-phytotoxic solvent mixture which included a surfactant. Treated plants and controls were maintained in a greenhouse for 21 days, after which time all species were compared to controls and visually evaluated. Plant response ratings, summarized in Table E, are based on a scale of 0 to 100 where 0 is no effect and 100 is complete control. A dash (-) response means no test result.

In another test the test system is wheat, winter. The test can be described thus: Test D pre-/postemergence herbicide test. The format is in vivo, Triticum aestivum. The note with it: for Plant response rating: Postemergence, Wheat, Winter, scale 0 to 100; for Plant response rating, Wheat, Winter: Preemergence, scale 0 to 100 (0 no effect, 100 complete control). In a few lines:
(§2)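 Seeds sown in silt loam were sprayed preemergence with test chemicals in a non-phytotoxic solvent mixture with surfactant. Postemergence plants grown in peat/vermiculite medium were treated at 2–18 cm (1- to 4-leaf stage). After 7 to 21 days in a controlled environment, injury was rated visually versus controls, 0 (no effect) to 100 (complete control).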

The test system of another test is windgrass. As to the kind of experiment: Test D pre-/postemergence herbicide test. Type of test: in vivo, Apera spica-venti. Particulars: for Plant response rating: Postemergence, Windgrass, scale 0 to 100; for Plant response rating, Windgrass: Preemergence, scale 0 to 100 (0 no effect, 100 complete control). In a few lines: as §2
[3] abbreviates: Preemergence, 62 g ai/ha, scale 0 to 100.
The mark [4] stands for this setting: Preemergence, 125 g ai/ha, scale 0 to 100 (0 no effect, 100 complete control).
Setting [5] is: Preemergence, 31 g ai/ha, scale 0 to 100 (0 no effect, 100 complete control).
[6] abbreviates: Preemergence, 250 g ai/ha, scale 0 to 100 (0 no effect, 100 complete control).

For `O=C1NCC(c2ccc(Cl)c(Cl)c2)C1C(=O)Nc1ccccc1F` (racemic) [Compound 14], the “Plant response rating, Foxtail, Green” value came to 90 in the test on foxtail, green [1] (setting [3]); 90 in the test with foxtail, green [1] (setting [4]); 95 in the test on foxtail, green [1] (setting [6]); 0 with foxtail, green [2] (16 g ai/ha); 0 with foxtail, green [2] (31 g ai/ha); 0 in the test on foxtail, green [2] (62 g ai/ha). For the same compound, the “Plant response rating, Foxtail, Green” value in the test with foxtail, green [2] (125 g ai/ha) amounted to 10; in the test on foxtail, green [2] (250 g ai/ha), 70. For the same compound, in the test on foxtail, green [1] (setting [5]), the “Foxtail, Green plant response rating” value turned out to be 25. The “Plant response rating, Corn” value with corn (16 g ai/ha), in the test on corn (31 g ai/ha), in the test on corn (62 g ai/ha), with corn (125 g ai/ha) and in the test with corn (250 g ai/ha) was 0 throughout. For the same compound, the “Plant response rating, Waterhemp” value in the test on waterhemp (16 g ai/ha), with waterhemp (31 g ai/ha), in the test on waterhemp (62 g ai/ha), with waterhemp (125 g ai/ha) and in the test on waterhemp (250 g ai/ha) was 0 each time.

Regarding `O=C1NCC(c2ccc(F)c(F)c2)C1C(=O)Nc1cccc(F)c1F` (stereo not shown) [Compound 17, N-(2,3-difluorophenyl)-4-(3,4-difluorophenyl)-2-oxo-3-pyrrolidinecarboxamide], the “Plant response rating, Foxtail, Green” value with foxtail, green [1] (Postemergence, 31 g ai/ha, scale 0 (no effect) to 100 (complete control)) is on record as 0; in the test on foxtail, green [1] (Postemergence, 62 g ai/ha, scale 0 to 100 (0 no effect, 100 complete control)), 0; in the test with foxtail, green [1] (Postemergence, 125 g ai/ha, scale 0 to 100 (0 no effect, 100 complete control)), 0; with foxtail, green [1] (Postemergence, 250 g ai/ha, scale 0 to 100 (0 no effect, 100 complete control)), 0; in the test with foxtail, green [1] (setting [3]), 95; with foxtail, green [1] (setting [4]) it was 98. Also, the “Plant response rating, Foxtail, Green” value in the test on foxtail, green [1] (setting [6]) came to 98; in the test on foxtail, green [2] (16 g ai/ha) it was 0; in the test on foxtail, green [2] (31 g ai/ha), 25; in the test with foxtail, green [2] (62 g ai/ha), 40; in the test with foxtail, green [2] (125 g ai/ha), 70; in the test with foxtail, green [2] (250 g ai/ha), 95. The “Foxtail, Green plant response rating” value in the test with foxtail, green [1] (setting [5]) turned out to be 95. Also, the Plant response rating in the test on wheat, winter (16 g ai/ha) is 0; in the test on wheat, winter (31 g ai/ha), 0; in the test with wheat, winter (62 g ai/ha) it was 0; with wheat, winter (125 g ai/ha) it was 0; in the test with wheat, winter (250 g ai/ha) it was 0; in the test with windgrass (16 g ai/ha), 0. In addition, the Plant response rating in the test on windgrass (31 g ai/ha), in the test on windgrass (62 g ai/ha), in the test on windgrass (125 g ai/ha) and in the test with windgrass (250 g ai/ha) was 0 in each case. Besides, the “Plant response rating, Corn” value in the test with corn (16 g ai/ha), in the test on corn (31 g ai/ha), in the test with corn (62 g ai/ha), with corn (125 g ai/ha) and in the test on corn (250 g ai/ha) was 0 in each case. For the same compound, the “Plant response rating, Waterhemp” value in the test on waterhemp (16 g ai/ha), in the test on waterhemp (31 g ai/ha), in the test on waterhemp (62 g ai/ha), with waterhemp (125 g ai/ha) and in the test on waterhemp (250 g ai/ha) was 0 each time.

For `O=C1NC[C@H](c2cccc(C(F)(F)F)c2)[C@H]1C(=O)Nc1ccccc1F` [Compound 204, (3R,4S)—N-(2-fluorophenyl)-2-oxo-4-[3-(trifluoromethyl)phenyl]-3-pyrrolidinecarboxamide], the “Plant response rating, Wheat, Winter” value is 15 with wheat, winter (62 g ai/ha); 15 in the test on wheat, winter (125 g ai/ha); 5 in the test with wheat, winter (31 g ai/ha); 20 in the test with wheat, winter (250 g ai/ha). For the same compound, the “Plant response rating, Windgrass” value is 65 with windgrass (62 g ai/ha), 85 in the test with windgrass (125 g ai/ha), 50 with windgrass (31 g ai/ha) and 95 in the test on windgrass (250 g ai/ha). Besides, the “Plant response rating, Corn” value with corn (31 g ai/ha) is on record as 0; in the test with corn (62 g ai/ha), 0; with corn (125 g ai/ha), 0; in the test with corn (250 g ai/ha), 40. The “Plant response rating, Waterhemp” value with waterhemp (31 g ai/ha), in the test on waterhemp (62 g ai/ha), in the test with waterhemp (125 g ai/ha) and in the test on waterhemp (250 g ai/ha) was 0 throughout. Moreover, the “Plant response rating, Foxtail, Green” value is listed as 40 in the test on foxtail, green [2] (31 g ai/ha); 98 in the test on foxtail, green [2] (62 g ai/ha); 95 with foxtail, green [2] (125 g ai/ha); 98 in the test on foxtail, green [2] (250 g ai/ha).

As for `O=C1NC[C@H](c2cccc(C(F)(F)F)c2)[C@H]1C(=O)Nc1cccc(F)c1F` [Compound 206], the “Plant response rating, Wheat, Winter” value in the test with wheat, winter (62 g ai/ha) is listed as 0; with wheat, winter (125 g ai/ha), 25; in the test on wheat, winter (31 g ai/ha), 0; with wheat, winter (250 g ai/ha) it was 30. Besides, the “Plant response rating, Windgrass” value is listed as 75 with windgrass (62 g ai/ha), 90 in the test with windgrass (125 g ai/ha), 75 with windgrass (31 g ai/ha) and 90 in the test on windgrass (250 g ai/ha). Besides, the “Plant response rating, Corn” value in the test on corn (31 g ai/ha) worked out at 0; with corn (62 g ai/ha), 50; in the test with corn (125 g ai/ha) it was 40; with corn (250 g ai/ha) it was 70. For the same compound, the “Plant response rating, Waterhemp” value with waterhemp (31 g ai/ha), with waterhemp (125 g ai/ha) and with waterhemp (250 g ai/ha) was 50 in each case. The “Plant response rating, Foxtail, Green” value turned out to be 80 in the test on foxtail, green [2] (31 g ai/ha); 98 in the test on foxtail, green [2] (62 g ai/ha); 98 with foxtail, green [2] (125 g ai/ha); 98 in the test on foxtail, green [2] (250 g ai/ha).

The record behind these values is US10294202B2, “Pyrrolidinones as herbicides” (FMC Corporation, priority 2013, dated 2019).
